Columns and labels:
293 751 SWE cells = test: Cytotoxicity (MTT) in 293 751 SWE cells; assay type: cell-based, human; conditions: concentration not given
Description: (§1) This screening assay employed cells (K293=human kidney cell line) which were stably transfected with the gene for amyloid precursor protein 751 (APP751) containing the double mutation Lys651 Met652 to Asn651 Leu652 (APP751 numbering) in the manner described in International Patent Application Publication No. 94/10569^1 and Citron et al.^16. This mutation is commonly called the Swedish mutation and the cells, designated as "293 751 SWE", were plated in Coming 96-well plates at 1.5-2.5×10^4 cells per well in Dulbecco's minimal essential media plus 10% fetal bovine serum. Cell number is important in order to achieve β-amyloid ELISA results within the linear range of the assay (~0.2 to 2.5 ng per mL).
Cytotoxic effects of the compounds were measured by a modification of the method of Hansen, et al.^17. To the cells remaining in the tissue culture plate was added 25 μL of a 3,(4,5-dimethylthiazol-2-yl)2,5-diphenyltetrazolium bromide (MTT) stock solution (5 mg/mL) to a final concentration of 1 mg/mL. Cells were incubated at 37° C. for one hour, and cellular activity was stopped by the addition of an equal volume of MTT lysis buffer (20% w/v sodium dodecylsulfate in 50% dimethylformamide, pH 4.7). Complete extraction was achieved by overnight shaking at room temperature. The difference in the OD562nm and the OD650nm was measured in a Molecular Device's UVmax microplate reader as an indicator of the cellular viability.

rat cortical neurons = test: Inhibition of toxicity of β-amyloid peptide to rat neuronal cells (alamarBlue); assay type: cell-based; conditions: 10 to 20 μM β-amyloid peptide, 2-3 days; on average where more than one duplicate experiment; compound concentration not stated
Description: (§2) The purpose of this test is to determine the effect of 3-indolyl-5-pyrazolone compounds on the toxicity of β-amyloid peptide to neuronal cells.
Primary rat cortical cultures were established from 18 day rat fetuses. Cortical tissue was dissociated by incubation in a trypsin/EDTA solution (0.05% trypsin+0.53 mM EDTA in HBSS; GIBCO Laboratories, Grand Island, N.Y., USA) for 20 minutes at 37° C. The trypsin was then inactivated by resuspending the cells in serum-containing medium (DMEM/FBS): Dulbecco's Modified Eagles' Medium (DMEM) containing 4.5 g/L glucose, 1 mM sodium pyruvate, 1 mM glutamine, 100 Units/mL penicillin, 100 μg/mL streptomycin, and supplemented with 10% heat-inactivated fetal bovine serum (GIBCO Laboratories, Grand Island, N.Y., USA). Cells were then pelleted by centrifugation and resuspended in a chemically-defined medium (DMEM/B27: DMEM containing B27 supplement; GIBCO Laboratories, Grand Island, N.Y., USA) in place of FBS. Polyethyleneimine (PEI; Sigma Chemical Company, St. Louis, Mo., USA)-coated 6.4 mm (96-well) dishes were timed once with DMEM/FBS, and then seeded at 0.75 to 1.25×10^5 cells per well in 0.1 mL DMEM/B27. Cultures were maintained in a H2 O-saturated incubator with an atmosphere of 90% air/10% CO2 at 37° C. Cell viability was visually assessed by phase contrast microscopy and quantified by measuring the reduction of alamarBlue™ (Alamar biosciences, Inc., Sacramento, Calif., USA) as described below. Serum replacement with B27 supplement yields nearly pure neuronal cultures as judged by immunocytochemistry for glial fibrillary acidic protein and neuron-specific enolase (Brewer, et al.^20)
(§3) β-amyloid peptide stock solutions were prepared as 1 mM stocks in sterile, doubly distilled water immediately prior to addition to cultures. Rat cortical neurons were exposed to β-amyloid peptide by removing the culture medium and replacing it with DMEM/N2 (GIBCO Laboratories,Grand Island, N.Y., USA) containing 10 to 20 μM β-amyloid peptide. Human cortical neurons were exposed to test compound plus β-amyloid peptide by removing the culture medium and replacing it with MEM containing 50 μM β-amyloid peptide. Cultures were maintained for 2-3 days before neuronal survival was quantified using alamarBlue™.
(§4) The alamarBlue™ assay incorporates a fluorometric/colorimetric metabolic indicator (Alamar Biosciences, Inc. Sacramento, Calif., USA). Viable cells convert alamarBlue™ from an oxidized (non-fluorescent, blue) form to a reduced (fluorescent, red) form. Assays were preformed by replacing the culture media with a 10% alamarBlue™ solution in DMEM (rat cortical cultures) or MEM (human cortical cultures).

human cortical neurons = test: Inhibition of toxicity of β-amyloid peptide to human neuronal cells (alamarBlue); assay type: cell-based; conditions: 50 μM β-amyloid peptide, 2-3 days; on average where more than one duplicate experiment; compound concentration not stated
Description: as §2
Primary Human Cortical Cell Culture
Primary human cortical cultures were prepared using a modification of the procedure described by Seubert, et al.^21 Following filtration through Nitex nylon screens, cortical tissue was resuspended in a trypsin/EDTA solution (0.05% trypsin+0.53 mM EDTA in HBSS; GIBCO Laboratories, Grand Island, N.Y., USA) and kept at 37° C. for 20 minutes. The trypsin was then inactivated by resuspending the cells in serum-containing medium (MEM/FBS: Modified Eagles' Medium (MEM) containing 1% glucose, 1 mM sodium pyruvate, 1 mM glutamine, and supplemented with 10% fetal bovine serum (GIBCO). Cells were then pelleted by centrifugation and resuspended in a chemically-defined medium (MEM/B27: MEM containing B27 supplement in place of FBS; GIBCO). Polyethyleneimine (PEI; Sigma Chemical Company, St. Louis, Mo., USA)-coated 6.4 mm (96-well) dishes were rinsed once with MEM/FBS, and then seeded at 0.75 to 1.25×10^5 cells per well in 0.1 mL MEM/B27. Cultures were maintained in a H2 O-saturated incubator with an atmosphere of 95% air/5% CO 2 at 37° C. The culture medium was exchanged twice weekly. Cell viability was visually assessed by phase contrast microscopy and quantified by measuring the reduction of alamarBlue™ (Alamar Biosciences, Inc., Sacramento, Calif., USA).
as §3, §4

[1] = system: β-amyloid peptide production; test: Cellular screen for inhibitors of β-amyloid production (ELISA, 293 751 SWE cells); assay type: cell-based, human; conditions: 2 h pretreatment + 2 h, normalized for cytotoxicity (MTT), concentration not given
Description: as §1
Following overnight incubation at 37° C. in an incubator equilibrated with 10% carbon dioxide, media were removed and replaced with 200 μL of a substituted 3-indolyl-5-pyrazolone (drug) containing media per well for a two hour pretreatment period and cells were incubated as above.
At the end of the pretreatment period, the media were again removed and replaced with fresh drag containing media as above and cells were incubated for an additional two hours. After treatment, plates were centrifuged in a Beckman GPR at 1200 rpm for five minutes at room temperature to pellet cellular debris from the conditioned media. From each well, 100 μL of conditioned media or appropriate dilutions thereof were transferred into an ELISA plate precoated with antibody 266 against amino acids 13-28 of β-amyloid peptide as described in International Patent Application Publication No. 94/10569^1 and stored at 4° C. overnight. An ELISA assay employing labelled antibody 6C6 against amino acids 1-16 of β-amyloid peptide was run the next day to measure the amount of β-amyloid peptide produced.
The results of the β-amyloid peptide ELISA were fit to a standard curve and expressed as ng/mL β-amyloid peptide. […] All results are the mean and standard deviation of at least six replicate assays.

Ultraviolet absorption = assay type: physicochemical; conditions: 0.1 mg/mL in methanol, 1 cm quartz cuvette
Description: The ultraviolet (UV) absorption properties of two representative substituted 3-indolyl-5-pyrazolones were evaluated and compared to indomethacin [1-(4-chlorobenzoyl)-5-methoxy-2-methyl-^1 H-indole-3-acetic acid], a compound known to absorb UV light (See page 4855 of the Merck Index, 10th Edition, Windholz, et al. Editor (1983)). Specifically, 0.1 mg/mL of 3-indolyl-5-pyrazolone (Ex. 9 or 33) or indomethacin in methanol was added to a quartz cuvette (1 cm) and the UV absorption of this solution was then measured at a wavelength of from 200 nm to 800 nm (Examples 9 and 33) and from 190 nm to 800 nm.

With COc1ccc2c(c1)c(CC1=NN(c3ccccc3)C(=O)C1)c(C)n2C(=O)c1ccc(Cl)cc1 [Example 8, 3-[1-(4-chlorobenzoyl)-5-methoxy-2-methyl-3-indolylmethyl]-1-phenyl-5-pyrazolone] the “cytotoxic effect on the 293 751 SWE cells” value (shortened to “cytotoxic effect”) (293 751 SWE cells) was “did not have a significant cytotoxic effect”, the “inhibition of the toxicity of β-amyloid peptide to rat neuronal cells” value (“inhibition … to rat neuronal cells” below) (rat cortical neurons) was < 10% and the “inhibition of the toxicity of β-amyloid peptide to human neuronal cells” value (“inhibition … to human neuronal cells” below) (human cortical neurons) was “at least 25%”. For the same compound, the “reduction of β-amyloid peptide production as compared to control” value (from here on “reduction”) [1] was “at least 20%”.
With COc1ccc2c(c1)c(CC1=NNC(=O)C1)c(C)n2C(=O)c1ccc(Cl)cc1 [Example 15, 3-[1-(4-chlorobenzoyl)-5-methoxy-2-methyl-3-indolylmethyl]-5-pyrazolone] the “inhibition … to rat neuronal cells” value (rat cortical neurons) was < 10%, the “inhibition … to human neuronal cells” value (human cortical neurons) was “at least 25%” and the “reduction” value [1] was < 20%.
In the case of COc1ccc(N2N=C(Cc3c(C)n(C(=O)c4ccc(Cl)cc4)c4ccc(OC)cc34)CC2=O)cc1 [Example 23, 3-[1-(4-chlorobenzoyl)-5-methoxy-2-methyl-3-indolylmethyl]-1-(4-methoxyphenyl)-5-pyrazolone], the “cytotoxic effect” value (293 751 SWE cells) is reported as “did not have a significant cytotoxic effect”, the “inhibition … to rat neuronal cells” value (rat cortical neurons) is reported as < 10% and the “inhibition … to human neuronal cells” value (human cortical neurons) is reported as “at least 25%”. For the same compound, the “reduction” value [1] was “at least 20%”.
For COc1cccc(N2N=C(Cc3c(C)n(C(=O)c4ccc(Cl)cc4)c4ccc(OC)cc34)CC2=O)c1 [Example 24, 3-[1-(4-chlorobenzoyl)-5-methoxy-2-methyl-3-indolylmethyl]-1-(3-methoxyphenyl)-5-pyrazolone], the “cytotoxic effect” value (293 751 SWE cells) was “did not have a significant cytotoxic effect”, the “inhibition … to rat neuronal cells” value (rat cortical neurons) was “at least 10%” and the “inhibition … to human neuronal cells” value (human cortical neurons) was “at least 25%”. The “reduction” value [1] was “at least 20%”.
For COc1ccc2c(c1)c(CC1=NN(c3cccc(Cl)c3)C(=O)C1)c(C)n2C(=O)c1ccc(Cl)cc1 [Example 26, 3-[1-(4-chlorobenzoyl)-5-methoxy-2-methyl-3-indolylmethyl]-1-(3-chlorophenyl)-5-pyrazolone], the “cytotoxic effect” value (293 751 SWE cells) was “did not have a significant cytotoxic effect”, the “inhibition … to rat neuronal cells” value (rat cortical neurons) was “at least 10%” and the “inhibition … to human neuronal cells” value (human cortical neurons) was “at least 25%”. The “reduction” value [1] was “at least 20%”.
With COc1ccc2c(c1)c(CC1=NN(c3cc(Cl)cc(Cl)c3)C(=O)C1)c(C)n2C(=O)c1ccc(Cl)cc1 [Example 27, 3-[1-(4-chlorobenzoyl)-5-methoxy-2-methyl-3-indolylmethyl]-1-(3,5-dichlorophenyl)-5-pyrazolone] the “cytotoxic effect” value (293 751 SWE cells) was “did not have a significant cytotoxic effect”, the “inhibition … to rat neuronal cells” value (rat cortical neurons) was “at least 10%” and the “inhibition … to human neuronal cells” value (human cortical neurons) was “at least 25%”. The “reduction” value [1] was “at least 20%”.
For COc1ccc2c(c1)c(CC1=NN(c3cccc([N+](=O)[O-])c3)C(=O)C1)c(C)n2C(=O)c1ccc(Cl)cc1 [Example 30, 3-[1-(4-chlorobenzoyl)-5-methoxy-2-methyl-3-indolylmethyl]-1-(3-nitrophenyl)-5-pyrazolone], the “cytotoxic effect” value (293 751 SWE cells) was “did not have a significant cytotoxic effect”, the “inhibition … to rat neuronal cells” value (rat cortical neurons) was < 10% and the “inhibition … to human neuronal cells” value (human cortical neurons) was “at least 25%”. For the same compound, the “reduction” value [1] was “at least 20%”.
With COc1ccc2c(c1)c(CC1=NN(c3ccc(C)cc3)C(=O)C1)c(C)n2C(=O)c1ccc(Cl)cc1 [Example 34, 3-[1-(4-chlorobenzoyl)-5-methoxy-2-methyl-3-indolylmethyl]-1-(4-methylphenyl)-5-pyrazolone] the “cytotoxic effect” value (293 751 SWE cells) was “did not have a significant cytotoxic effect”, the “inhibition … to rat neuronal cells” value (rat cortical neurons) was “at least 10%” and the “inhibition … to human neuronal cells” value (human cortical neurons) was “at least 25%”. The “reduction” value [1] was “at least 20%”.
With COc1ccc2c(c1)c(CC(=O)O)c(C)n2C(=O)c1ccc(Cl)cc1 [indomethacin, 1-(4-chlorobenzoyl)-5-methoxy-2-methyl-^1 H-indole-3-acetic acid, reference compound] the “Abs (at λmax)” value (Ultraviolet absorption) was 2.3996, the “E = Extinction coefficient” value (Ultraviolet absorption) was 23.99 AU/mg/mL/cm and the λmax (Ultraviolet absorption) was 246 nm. The “λother (shoulder)” value (Ultraviolet absorption) was 318 nm.

From patent US5484940A, “Substituted 3-indolyl-5-pyrazolone compounds” (priority 1994, dated 1996)
